Experimental data from patent US5681826A, “Saccharide composition with reduced reducibility, and preparation and uses thereof” (Kabushiki Kaisha Hayashibara Seibutsu Kagaku Kenkyujo, priority 1994, dated 1997).

Columns and labels:
β-amylase = test: Hydrolysis by β-amylase; format: biochemical
[1] = Reducing power on the Somogyi-Nelson's method expressed by DE; format: physicochemical; details: d.s.b.
Description: The reducing powders of these novel high-purity saccharides were determined on the Somogyi-Nelson's method and expressed by DE.

[2] = Acute toxicity test (Experiment 8); details: mouse, in vivo, po
From the text: (§1) By using 7-week old dd-strain mice, the non-reducing saccharide preparation P I, P II, P III, P IV or P V was orally administered to the mice for acute toxicity test.

mice = test: Acute toxicity test (Experiment 8); details: oral, highest possible doses
From the text: as §1

[3] = Hydrolysis by rat intestinal acetone powder; format: in vitro ADME; details: pH 6.0, 37°C., 18 hours
Description: (§2) The enzymatic reaction with the α-amylase was as follows: Dissolve 10 mg of a substrate in one ml of 50 mM phosphate buffer (pH 6.9), mix the resultant solution with one unit of the α-amylase, and incubate the resultant mixture at 37° C. for 18 hours. The enzymatic reaction with the α-glucosidase was conducted under the same conditions as in the case of α-amylase except that 50 mM acetate buffer (pH 4.0) was used as a buffer. The enzymatic reaction using the rat intestinal acetone powder was carried out under the same conditions as in the case of α-amylase except that 50 mM maleate buffer (pH 6.0) was used as a buffer. The saccharide compositions obtained by the α-amylase, α-glucosidase and rat intestinal acetone powder are respectively in Tables 6, 7 and 8.

[4] = biological target: T1, trehalose-releasing enzyme (Rhizobium sp. M-11, UniProt Q53238); test: Action of trehalose-releasing enzyme on α-glycosyltrehalose and maltooligosaccharides (Table 13); format: biochemical; details: 20% substrate, 2 units/g, 40°C., pH 7.0, 48 hours; label = substrate
T1 construct: M-11 culture
T1 sequence (Q53238 1-596): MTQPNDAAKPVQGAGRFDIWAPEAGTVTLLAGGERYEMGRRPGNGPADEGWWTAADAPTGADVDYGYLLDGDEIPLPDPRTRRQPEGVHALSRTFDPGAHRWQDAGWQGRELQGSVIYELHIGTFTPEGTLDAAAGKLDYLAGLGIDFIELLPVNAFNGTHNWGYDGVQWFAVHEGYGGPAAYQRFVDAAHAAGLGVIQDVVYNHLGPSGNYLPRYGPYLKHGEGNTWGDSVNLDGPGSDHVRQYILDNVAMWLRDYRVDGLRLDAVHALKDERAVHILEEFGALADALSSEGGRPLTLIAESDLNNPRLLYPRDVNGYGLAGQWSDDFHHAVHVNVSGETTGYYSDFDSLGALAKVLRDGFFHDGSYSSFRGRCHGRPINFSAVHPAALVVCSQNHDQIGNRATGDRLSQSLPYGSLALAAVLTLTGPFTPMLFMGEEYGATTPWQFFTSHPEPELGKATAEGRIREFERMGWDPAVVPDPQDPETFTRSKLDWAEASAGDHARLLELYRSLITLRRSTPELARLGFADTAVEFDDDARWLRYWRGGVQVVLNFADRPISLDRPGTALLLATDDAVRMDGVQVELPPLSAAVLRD
Description: An aqueous solution containing 20%, d.s.b., of one of the above 5 non-reducing saccharide preparations, namely α-glycosyltrehalose preparations, was prepared, followed by mixing it with 2 units/g substrate, d.s.b., of the purified trehalose-releasing enzyme obtained in Experiment 15, and subjecting the resultant to an enzymatic reaction at 40° C. and pH 7.0 for 48 hours. The resultant each reaction mixture was desalted, and analyzed for saccharide composition on HPLC using "WAKOBEADS WB-T-330 column", a column of Wako Pure Chemical Industries Ltd., Tokyo, Japan. As a control, a fresh preparation of the same trehalose-releasing enzyme was allowed to act on maltotriose, maltotetraose, maltopentaose, maltohexaose or maltoheptaose, and the resultant each reaction mixture was analyzed for saccharide composition on HPLC.

α-glucosidase = test: Hydrolysis by α-glucosidase derived from rice; format: biochemical; details: pH 4.0, 37°C., 18 hours
Description: as §2

[5] = Maillard reaction with glycine, absorbance at 480 nm; format: physicochemical; details: for Coloration degree (480 nm): one % glycine, 10% saccharide, pH 7.0, 100°C., 90 min, 1-cm cell
Description: A solution, containing one % glycine and 10% of a saccharide preparation PI, P II, P III, P IV or P V in Experiment 4 and 50 mM phosphate buffer (pH 7.0), was kept at 100° C. for 90 min, followed by cooling the resultant solution, and determining for absorbance at a wave length of 480 nm in a 1-cm cell. As a control, maltotriose, maltotetraose, maltopentaose, maltohexaose and maltoheptaose, as a material for the saccharide preparations, were similarly treated as above, and measured for absorbance at a wave length of 480 nm.
A solution, containing one % of glycine, 10% of a high-purity trehalose preparation with a purity of 99.5%, d.s.b., obtained by the method in Experiment 17, and 50 mM phosphate buffer (pH 7.0), was kept at 100° C. for 90 min, followed by cooling the resultant solution and determining the absorbance at a wave length of 480 nm in a 1-cm cell. As a control, glucose and maltose were similarly treated as above, and the resultants were determined for absorbance at a wave length of 480 nm.

glucoamylase = test: Enzymatic hydrolysis by glucoamylase; format: biochemical; details: for Glucose / Molecular ratio (Glucose/Trehalose) / Trehalose: one unit glucoamylase, pH 4.5, 40°C., 6 hours
Description: Fifty mg aliquots of non-reducing saccharide preparations P I, P II, P III, P IV and P V in Experiment 4 were respectively dissolved in one ml of 50 mM acetate buffer (pH 4.5), admixed with one unit of glucoamylase commercialized by Seikagaku-Kogyo Co., Ltd., Tokyo, Japan, to effect enzymatic hydrolysis at 40° C. for 6 hours. HPLC analysis only detected glucose and trehalose in all resultant mixtures. The percentages and the molecular ratios of glucose to trehalose in each saccharide are in Table 5.

α-amylase = test: Hydrolysis by α-amylase derived from pig pancreas; format: in vitro ADME; details: for Saccharide composition of hydrolysate by α-amylase: G1 (glucose) / Saccharide composition of hydrolysate by α-amylase: G2 (maltose) / Saccharide composition of hydrolysate by α-amylase: G3 (maltotriose) / Saccharide composition of hydrolysate by α-amylase: P I / Saccharide composition of hydrolysate by α-amylase: P II: one unit, pH 6.9, 37°C., 18 hours
Description: as §2

Row | SMILES | Hydrolysis by β-amylase (β-amylase) | DE (reducing power) [1] | LD50 [2] [mg/kg] | Mortality (mice) | Saccharide composition of hydrolysate by rat intestinal acetone powder: Glucose [3] [%] | Saccharide composition of hydrolysate by rat intestinal acetone powder: Other saccharides [3] [%] | Saccharide composition of hydrolysate by rat intestinal acetone powder: Trehalose [3] [%] | Percentage of reducing saccharide released (glucose, maltose, maltotriose, maltotetraose or maltopentaose) [4] [%] | Percentage of trehalose released [4] [%] | Saccharide composition of hydrolysate by α-glucosidase: Glucose (α-glucosidase) [%] | Saccharide composition of hydrolysate by α-glucosidase: Other saccharides (α-glucosidase) [%] | Saccharide composition of hydrolysate by α-glucosidase: Trehalose (α-glucosidase) [%] | Coloration degree relative to corresponding material maltooligosaccharides [5] | Coloration degree (480 nm) [5] | Hydrolysis by glucoamylase (glucoamylase) | Glucose (glucoamylase) [%] | Molecular ratio (Glucose/Trehalose) (glucoamylase) | Trehalose (glucoamylase) [%] | Saccharide composition of hydrolysate by α-amylase: G1 (glucose) (α-amylase) | Saccharide composition of hydrolysate by α-amylase: G2 (maltose) (α-amylase) | other results
1 | OC[C@H]1O[C@H](O[C@H]2O[C@H](CO)[C@@H](O[C@H]3O[C@H](CO)[C@@H](O[C@H]4O[C@H](CO)[C@@H](O)[C@H](O)[C@H]4O)[C@H](O)[C@H]3O)[C@H](O)[C@H]2O)[C@H](O)[C@@H](O)[C@@H]1O [P II, α-maltosyltrehalose] | not hydrolyzed | 0.35 | ≥ 50000 | no mouse died | 52.5 | 0.4 | 47.1 | 44.4 | 44.3 | 52.1 | 0.3 | 47.6 | 3-6% | 0.018 | hydrolyzed into 2 glucose molecules and one trehalose molecule | 52.0 | 2.06 | 48.0 | 0 | 0.8 | Hydrolysis by α-amylase (α-amylase): not substantially hydrolyzed; Saccharide composition of hydrolysate by α-amylase: G3 (maltotriose) (α-amylase): 0.4; Saccharide composition of hydrolysate by α-amylase: P I (α-amylase): 0; Saccharide composition of hydrolysate by α-amylase: P II (α-amylase): 98.8
2 | OC[C@H]1O[C@H](O[C@H]2O[C@H](CO)[C@@H](O[C@H]3O[C@H](CO)[C@@H](O[C@H]4O[C@H](CO)[C@@H](O[C@H]5O[C@H](CO)[C@@H](O)[C@H](O)[C@H]5O)[C@H](O)[C@H]4O)[C@H](O)[C@H]3O)[C@H](O)[C@H]2O)[C@H](O)[C@@H](O)[C@@H]1O [P III, α-maltotriosyltrehalose] | one maltose molecule and one P I molecule | 0.10 | ≥ 50000 | no mouse died | 62.0 | 0.4 | 37.6 | 60.0 | 39.5 | 61.7 | 0.2 | 38.1 | 3-6% | 0.012 | hydrolyzed into 3 glucose molecules and one trehalose molecule | 61.4 | 3.02 | 38.6 | 1.2 | 33.0 | Hydrolysis by α-amylase (α-amylase): hydrolyzed by the α-amylase into lower molecular weight oligosaccharides; Saccharide composition of hydrolysate by α-amylase: G3 (maltotriose) (α-amylase): 0; Saccharide composition of hydrolysate by α-amylase: P I (α-amylase): 61.0; Saccharide composition of hydrolysate by α-amylase: P II (α-amylase): 4.8
3 | OC[C@H]1O[C@H](O[C@H]2O[C@H](CO)[C@@H](O[C@H]3O[C@H](CO)[C@@H](O[C@H]4O[C@H](CO)[C@@H](O[C@H]5O[C@H](CO)[C@@H](O[C@H]6O[C@H](CO)[C@@H](O)[C@H](O)[C@H]6O)[C@H](O)[C@H]5O)[C@H](O)[C@H]4O)[C@H](O)[C@H]3O)[C@H](O)[C@H]2O)[C@H](O)[C@@H](O)[C@@H]1O [P IV, α-maltotetraosyltrehalose] | one maltose molecule and one P II molecule | 0.27 | ≥ 50000 | no mouse died | 68.8 | 0.4 | 30.8 | 65.5 | 34.2 | 69.5 | 0.3 | 30.2 | 3-6% | 0.016 | hydrolyzed into 4 glucose molecules and one trehalose molecule | 68.3 | 4.09 | 31.7 | 1.6 | 7.5 | Hydrolysis by α-amylase (α-amylase): hydrolyzed by the α-amylase into lower molecular weight oligosaccharides; Saccharide composition of hydrolysate by α-amylase: G3 (maltotriose) (α-amylase): 40.4; Saccharide composition of hydrolysate by α-amylase: P I (α-amylase): 47.2; Saccharide composition of hydrolysate by α-amylase: P II (α-amylase): 3.3
4 | OC[C@H]1O[C@H](O[C@H]2O[C@H](CO)[C@@H](O[C@H]3O[C@H](CO)[C@@H](O[C@H]4O[C@H](CO)[C@@H](O[C@H]5O[C@H](CO)[C@@H](O[C@H]6O[C@H](CO)[C@@H](O[C@H]7O[C@H](CO)[C@@H](O)[C@H](O)[C@H]7O)[C@H](O)[C@H]6O)[C@H](O)[C@H]5O)[C@H](O)[C@H]4O)[C@H](O)[C@H]3O)[C@H](O)[C@H]2O)[C@H](O)[C@@H](O)[C@@H]1O [P V, α-maltopentaosyltrehalose] | 2 maltose molecules and one P I molecule | 0.23 | ≥ 50000 | no mouse died | 73.4 | 0.1 | 26.5 | 70.6 | 29.1 | 71.4 | 0.3 | 28.3 | 3-6% | 0.015 | hydrolyzed into 5 glucose molecules and one trehalose molecule | 72.9 | 5.11 | 27.1 | 1.0 | 8.6 | Saccharide composition of hydrolysate by α-amylase: G3 (maltotriose) (α-amylase): 35.3; Saccharide composition of hydrolysate by α-amylase: P I (α-amylase): 10.2; Saccharide composition of hydrolysate by α-amylase: P II (α-amylase): 44.9
